The values that follow come from ChEMBL document CHEMBL1153684, “Antiinflammatory -benzeneethanamines. III” (Bioorg Med Chem Lett, 1993).

One test deals with Phospholipase A2 (Rattus norvegicus, UniProt P04055). The test can be described thus: Inhibitory activity against polymorphonuclear cell phospholipase-A2 in rat.
Test [1] concerns Rattus norvegicus. As to the kind of experiment: Compound was tested for its oral antiinflammatory activity in the rat carrageenan paw edema assay (CAR). The class given is functional.
In test [2] the target is T1, Polyunsaturated fatty acid 5-lipoxygenase (Rattus norvegicus, UniProt P12527).
T1 sequence (P12527 whole entry): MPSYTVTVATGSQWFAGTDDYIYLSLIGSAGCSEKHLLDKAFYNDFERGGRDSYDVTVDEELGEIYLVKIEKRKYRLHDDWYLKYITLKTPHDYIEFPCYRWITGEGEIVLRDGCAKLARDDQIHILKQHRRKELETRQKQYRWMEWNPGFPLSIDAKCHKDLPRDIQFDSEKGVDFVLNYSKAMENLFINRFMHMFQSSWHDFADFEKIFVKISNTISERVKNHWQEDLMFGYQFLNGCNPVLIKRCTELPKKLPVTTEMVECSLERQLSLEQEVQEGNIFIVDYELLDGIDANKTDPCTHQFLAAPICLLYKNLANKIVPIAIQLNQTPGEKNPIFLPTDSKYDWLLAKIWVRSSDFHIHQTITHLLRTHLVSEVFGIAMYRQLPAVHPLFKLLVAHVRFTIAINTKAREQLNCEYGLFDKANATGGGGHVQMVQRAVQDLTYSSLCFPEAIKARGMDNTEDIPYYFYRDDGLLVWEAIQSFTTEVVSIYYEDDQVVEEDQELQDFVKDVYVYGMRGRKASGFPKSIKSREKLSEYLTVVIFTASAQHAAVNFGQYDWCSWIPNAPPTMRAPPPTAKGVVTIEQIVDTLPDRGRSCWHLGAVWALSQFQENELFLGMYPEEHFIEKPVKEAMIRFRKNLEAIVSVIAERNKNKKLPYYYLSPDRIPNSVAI
The test can be described thus: Inhibition of rat basophilic leukemia cell 5-lipoxygenase.

The test system of test [3] is Mus musculus. The test can be described thus: Compound was tested for its oral antiinflammatory activity in the mouse contact sensitivity assay (CON SEN) at the specified dose, activity expressed as % inhibition at 50 mg/Kg. The class given is functional.
In test [4] the test system is Mus musculus. The test can be described thus: Percent inhibition for its antiinflammatory activity in the tetradecanoyl phorbol acetate mouse ear edema assay (TPA EAR); Inhibition at 100 […]. The class given is functional.
Test [5] concerns Rattus norvegicus. The test can be described thus: Compound was tested for its antiinflammatory activity in the rat established adjuvant arthritis paw edema assay (EST ADJ ARTH), after oral administration. The class given is functional.
Test [6] concerns Rattus norvegicus. The test can be described thus: Percent inhibition for its antiinflammatory activity in the rat carrageenan paw edema assay (CAR), % inhibition at 50 mg/Kg. The class given is functional. (In general: The carrageenan paw model is a standard test of acute inflammation.)
The species entered for test [7] is Mus musculus. As to the kind of experiment: Compound was tested for its oral antiinflammatory activity in the mouse contact sensitivity assay (CON SEN). The class given is functional.

Each structure is given as a SMILES string.

Sequence of Phospholipase A2 (P04055 whole entry): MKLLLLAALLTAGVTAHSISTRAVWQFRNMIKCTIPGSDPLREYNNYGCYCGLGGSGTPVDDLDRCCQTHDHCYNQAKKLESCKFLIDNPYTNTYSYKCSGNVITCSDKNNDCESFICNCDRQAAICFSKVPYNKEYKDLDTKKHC

With `NC1=NN(c2cccc(C(F)(F)F)c2)CC1` [BW-755C], at Phospholipase A2, the 50% inhibitory concentration (IC50) (in general, the concentration that inhibits the measured activity by half) was over 25 µM.

`COc1ccc2c(c1)c(CC(=O)O)c(C)n2C(=O)c1ccc(Cl)cc1` [INDOMETHACIN] had an ED30 in the test on Rattus norvegicus [1] of 2.8 µM/kg. In addition, the IC50 in test [2] was over 250 µM.

For the compound `CCN(CC)CCCC(C)Nc1c2ccc(Cl)cc2nc2ccc(OC)cc12` (stereo not given) [QUINACRINE], the ED30 in the test on Rattus norvegicus [1] came to 5.8 µM/kg. At Phospholipase A2, this compound returned an IC50 of 100 µM.

`CC(C)(C)c1ccc(SCCCCC(CN)c2ccc(F)cc2)cc1.Cl` (stereo not given) had an ED30 with Rattus norvegicus [1] of 153.8 µM/kg. In addition, the results for the concentration for half-maximal inhibition (IC50) (in test [2]; at Phospholipase A2) were 230 µM and 4.8 µM, respectively.

For the compound `C[C@@H]1C[C@H]2[C@@H]3CCC4=CC(=O)C=C[C@]4(C)[C@@]3(F)[C@@H](O)C[C@]2(C)[C@@]1(O)C(=O)CO` [DEXAMETHASONE], the ED30 with Rattus norvegicus [1] was under 2.5 µM/kg. Also, the figures for the 50% inhibitory concentration (IC50) (in test [2]; on Phospholipase A2) were over 25 µM and over 750 µM, respectively.

For `Cl.NCC(CCCSc1ccc2ccccc2c1)c1ccc(F)cc1` (stereo not given), the ED30 in the test with Rattus norvegicus [1] is over 153.6 µM/kg. The IC50 was 23 µM in test [2] and 14 µM on Phospholipase A2.

As for `Cc1ccc(SCCCCC(CN)c2ccc(F)cc2)cc1.Cl` (stereo not given), the inhibition in vivo (commonly the percentage by which the read-out fell short of the control) at 50 mg/kg in the test with Mus musculus [3] is 51.2%; in the test on Rattus norvegicus [6], 59%. The Inhibition (commonly the share of the control response that was lost under treatment) with Mus musculus [4] was 37%. Also, the ED30 was 1.4 µM/kg in the test on Rattus norvegicus [1] and 0.51 mg/kg in the test on Rattus norvegicus [1] (Rattus norvegicus, po, read-out: ED30). For the same compound, the IC50 in test [2] stood at 9.5 µM; on Phospholipase A2, 5.5 µM. Moreover, the ED50 (usually the dose that gives a 50% effect, or the effect in half of the subjects) in the test with Rattus norvegicus [5] was found to be 50 mg/kg. The ED35 in the test listed under Mus musculus [7] came to 8.9 mg/kg.

In turn, `Cc1ccc(SCCCCCC(CN)c2ccc(F)cc2)cc1.Cl` (stereo not given) showed an ED30 in the test on Rattus norvegicus [1] of 117.7 µM/kg. For the same compound, the concentration for half-maximal inhibition (IC50) came out at 35 µM in test [2] and 6.6 µM against Phospholipase A2.

For `Cc1ccc(SCCCC(CN)c2ccc(F)cc2)cc1.Cl` (stereo in doubt), in the test with Rattus norvegicus [1], the ED30 is over 172.8 µM/kg. Besides, the IC50 in test [2] is 75 µM; against Phospholipase A2 it was 54 µM.

Compound `Cc1ccc(SCCCC(CN)c2ccc(F)cc2)cc1.Cl` (stereo in doubt; 2) displayed an ED30 with Rattus norvegicus [1] of 50 µM/kg. Further, the results for the concentration for half-maximal inhibition (IC50) (in test [2]; against Phospholipase A2) were 38 µM and 28.3 µM, respectively.

As for `Cl.NCC(CCCCSc1ccc2ccccc2c1)c1ccc(F)cc1` (stereo not given), the ED30 in the test with Rattus norvegicus [1] was determined as 171.3 µM/kg. In addition, the 50% inhibitory concentration (IC50) in test [2] stood at 130 µM; against Phospholipase A2 it was 2.4 µM.
